Measurements published in patent publication US8945361B2, “Electrophoresis standards, methods and kits” (ProteinSimple, priority 2005, dated 2015).
Where a SMILES comes first, the peptide text is derived from it. The star is where a group is joined. 5TAMRA = CN(C)c1ccc2c(c1)Oc1cc(N(C)C)ccc1C21OC(=O)c2cc(C(=O)*)ccc21; X1 = [N-]=[N+]=Nc1c(F)c(F)c(C(=O)*)c(F)c1F

Key:
[1] = expected pKa's, net charge and pI of the Example 5 peptide; assay type: physicochemical
Source text: The blocks of lysine (K) and glutamic acid (E) residues contain basic and acidic ionizable groups at a variety of pKa values in keeping with the proximity effects described above. […] The approximate expected net charge on the peptide at various pH values is then as follows: pH 11, −3; pH 10, −2.5; pH 9, −1.7; pH 8, −0.8; pH 7, +0.3; pH 6, +1.2; pH 5, +2.3; pH 4, +3.2; pH 3, +4, pH 2, +4.5; pH 1, +5. […] The peptide is therefore expected to be a useful pI standard that forms a tight band under electrophoretic conditions in a pH gradient. Additional standards of desired pIs can be generated by systematically varying the number of sequential K and E residues in a set of peptides based on the above sequence.

[2] = pI mobility standard
Source text: The pI of standards can be determined directly in IEF PAGE gels using a pH meter with a microprobe.

## Ac—K(ATFB) KKKKKAibAibEEEGG K(5-TAMRA)G-NH2
[1]; pH 1
  approximate expected net charge: ~+5
[1]; pH 2
  approximate expected net charge: ~+4.5
[1]; pH 3
  approximate expected net charge: ~+4
[1]; pH 4
  approximate expected net charge: ~+3.2
[1]; pH 5
  approximate expected net charge: ~+2.3
[1]; pH 6
  approximate expected net charge: ~+1.2
[1]; pH 7
  approximate expected net charge: ~+0.3
[1]; pH 8
  approximate expected net charge: ~−0.8
[1]; pH 9
  approximate expected net charge: ~−1.7
[1]; pH 10
  approximate expected net charge: ~−2.5
[1]; pH 11
  approximate expected net charge: ~−3

## C[C@H](NC(=O)CNC(=O)[C@@H](N)CCCCNC(=O)c1c(F)c(F)c(N=[N+]=[N-])c(F)c1F)C(=O)N[C@@H](CCC(=O)O)C(=O)N[C@@H](Cc1c[nH]cn1)C(=O)N[C@@H](Cc1c[nH]cn1)C(=O)N[C@@H](CCCCNC(=O)c1ccc2c(c1)C(=O)OC21c2ccc(N(C)C)cc2Oc2cc(N(C)C)ccc21)C(=O)NCC(=O)O [H2N—K(ATFB)GAEHHK(5-TAMRA)G-OH] (H-K(X1)GAEHHK(5TAMRA)G-OH)
[2]
  pI: approximately 5.45
